Laboratory results: patent US8404673B2, “Carbocyclic GlyT1 receptor antagonists” (Hoffmann-La Roche Inc., priority 2009, dated 2013)
pIC50: −log10 of the molar value. Like-named read-outs stand apart in the source and are kept apart here.

Target: T1, mGlyT-1b (Mus musculus, UniProt P28571)
T1 construct: host or cells: Flp-in-CHO
T1 sequence (P28571 1-651 isoform P28571-2): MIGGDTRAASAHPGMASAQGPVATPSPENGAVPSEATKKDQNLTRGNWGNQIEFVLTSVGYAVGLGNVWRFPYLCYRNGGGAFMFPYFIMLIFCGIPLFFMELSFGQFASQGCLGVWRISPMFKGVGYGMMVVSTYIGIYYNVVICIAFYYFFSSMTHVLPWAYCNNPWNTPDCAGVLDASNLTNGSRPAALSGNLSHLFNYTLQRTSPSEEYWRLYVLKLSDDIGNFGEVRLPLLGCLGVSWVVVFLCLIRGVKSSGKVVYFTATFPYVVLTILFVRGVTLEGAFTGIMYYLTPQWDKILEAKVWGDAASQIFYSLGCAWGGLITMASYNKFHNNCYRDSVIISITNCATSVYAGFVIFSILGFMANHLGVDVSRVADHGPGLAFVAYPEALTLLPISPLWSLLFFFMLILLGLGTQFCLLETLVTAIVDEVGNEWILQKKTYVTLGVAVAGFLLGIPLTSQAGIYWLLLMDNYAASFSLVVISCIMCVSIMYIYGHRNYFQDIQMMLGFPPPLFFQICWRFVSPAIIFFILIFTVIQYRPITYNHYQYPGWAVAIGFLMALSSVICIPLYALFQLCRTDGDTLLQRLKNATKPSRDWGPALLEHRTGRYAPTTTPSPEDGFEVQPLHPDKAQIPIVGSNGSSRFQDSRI
Assay: Glycine Uptake Inhibition Assay (mGlyT-1b)
Type: cell-based

| Structure (SMILES) | pIC50 (IC50 data) | also measured |
| --- | --- | --- |
| COc1cc(C(F)(F)F)cc(Br)c1C(=O)NC1CCCC1N1CCCC1 (single isomer, unassigned; (-)) [Example 114, (−)-2-Bromo-6-methoxy-N-cis-(2-pyrrolidin-1-yl-cyclopentyl)-4-trifluoromethyl-benzamide] | 7.18 | – |
| COc1cc(C(F)(F)F)cc(SC)c1C(=O)N[C@@H]1CCC[C@@H]1NC1CCC1 (single isomer, unassigned) [Example 62, (−)-cis-N-(-2-Cyclobutylamino-cyclopentyl)-2-methoxy-6-methylsulfanyl-4-trifluoromethyl-benzamide] | – | pIC50 (read-out: IC50 data): 7.50 |
| O=C(N[C@H]1CCC[C@H]1N1CCCC1)c1c(F)cc(C(F)(F)F)cc1C(F)(F)F (relative stereo) [Example 105, cis-2-Fluoro-N-(2-pyrrolidin-1-yl-cyclopentyl)-4,6-bis-trifluoromethyl-benzamide] | 7.12 | – |
| COc1cc(C(F)(F)F)cc(OC(F)F)c1C(=O)N[C@H]1CCC[C@H]1N1CCCC1 (relative stereo) [Example 133, 2-Difluoromethoxy-6-methoxy-N-((cis)-2-pyrrolidin-1-yl-cyclopentyl)-4-trifluoromethyl-benzamide] | 7.04 | – |
| CSc1cc(C(F)(F)F)cc(C(F)(F)F)c1C(=O)N[C@H]1CCC[C@H]1NC1CCCC1 (racemic) [Example 134, N-((cis)-2-Cyclopentylamino-cyclopentyl)-2-methylsulfanyl-4,6-bis-trifluoromethyl-benzamide] | – | pIC50 ([3H]-glycine uptake, Flp-in-CHO cells transfected with mGlyT-1b cDNA, 20 min preincubation at 22° C., read-out: IC50 data): 7.02 |
| COc1cc(C(F)(F)F)cc(SC)c1C(=O)N[C@@H]1CCC[C@@H]1N1CCCC1 (single isomer, unassigned) [Example 59, (+)-2-Methoxy-6-methylsulfanyl-N-(2-pyrrolidin-1-yl-cyclopentyl)-4-trifluoromethyl-benzamide] | 7.21 | – |
| O=C(NC1CCCC1N1CCCC1)c1c(Cl)cc(C(F)(F)F)cc1Cl (single isomer, unassigned; (+)) [Example 128, (+)-2,6-Dichloro-N-cis-(2-pyrrolidin-1-yl-cyclopentyl)-4-trifluoromethyl-benzamide] | 7.16 | – |
| CSc1cc(C(F)(F)F)cc(C(F)(F)F)c1C(=O)N[C@@H]1CCC[C@@H]1N1CCCC1 (single isomer, unassigned) [Example 118, (+)-cis-2-Methylsulfanyl-N-(2-pyrrolidin-1-yl-cyclopentyl)-4,6-bis-trifluoromethyl-benzamide] | 7.22 | – |
| CCc1cc(C(F)(F)F)ccc1C(=O)N[C@H]1CCC[C@H]1N1CCCC1 (relative stereo) [Example 80, cis-2-Ethyl-N-(2-pyrrolidin-1-yl-cyclopentyl)-4-trifluoromethyl-benzamide] | 7.05 | – |
| O=C(NC1CCCC1N1CCCC1)c1c(C2CC2)cc(C(F)(F)F)cc1C(F)(F)F (single isomer, unassigned; (-)) [Example 138, (−)-2-Cyclopropyl-N-((1R,2, or 1S,2R)-2-pyrrolidin-1-yl-cyclopentyl)-4,6-bis-trifluoromethyl-benzamide] | 7.17 | – |
| O=C(NC1CCCC1N1CCCC1)c1ccc(C(F)(F)F)cc1C1CC1 (single isomer, unassigned) [Example 96, (+2-Cyclopropyl-N-cis-(-2-pyrrolidin-1-yl-cyclopentyl)-4-trifluoromethyl-benzamide] | 7.37 | – |
| Cc1cc(C(F)(F)F)cc(C)c1C(=O)N[C@H]1CCC[C@H]1N1CCCC1 (relative stereo) [Example 132, 2,6-Dimethyl-N-((cis)-2-pyrrolidin-1-yl-cyclopentyl)-4-trifluoromethyl-benzamide] | 7.44 | – |
| O=C(N[C@H]1CCC[C@H]1N1CCCC1)c1ccc(C(F)(F)F)cc1C(F)(F)F (single isomer, unassigned) [Example 78, (−)-N-(2-Pyrrolidin-1-yl-cyclopentyl)-2,4-bis-trifluoromethyl-benzamide] | 7.12 | – |
| CSc1cc(C(F)(F)F)ccc1C(=O)N[C@@H]1CCC[C@@H]1N1CCCC1 (single isomer, unassigned) [Example 84, (+)-2-Methylsulfanyl-N-(2-pyrrolidin-1-yl-cyclopentyl)-4-trifluoromethyl-benzamide] | 7.05 | – |
| O=C(NC1CCCC1NC1CCCC1)c1ccc(C(F)(F)F)cc1C1CC1 (single isomer, unassigned; (+)) [Example 109, (+)-cis-N-2-Cyclopentylamino-cyclopentyl)-2-cyclopropyl-4-trifluoromethyl-benzamide] | – | pIC50 (read-out: IC50 data): 7.60 |
| CCc1cc(C(F)(F)F)ccc1C(=O)N[C@H]1CCC[C@H]1NC1CCCC1 (single isomer, unassigned) [Example 92, (+)-N-(2-Cyclopentylamino-cyclopentyl)-2-ethyl-4-trifluoromethyl-benzamide] | – | pIC50 (read-out: IC50 data): 7.02 |
| O=C(N[C@H]1CCC[C@H]1N1CCCC1)c1c(Cl)cc(C(F)(F)F)cc1Cl (relative stereo) [Example 108, cis-2,6-Dichloro-N-(2-pyrrolidin-1-yl-cyclopentyl)-4-trifluoromethyl-benzamide] | 7.05 | – |
| CCc1cc(C(F)(F)F)cc(OC)c1C(=O)N[C@H]1CCC[C@H]1N1CCCC1 (relative stereo) [Example 140, 2-Ethyl-6-methoxy-N-((cis)-2-pyrrolidin-1-yl-cyclopentyl)-4-trifluoromethyl-benzamide] | 7.26 | – |
| CCc1cc(C(F)(F)F)cc(C(F)(F)F)c1C(=O)N[C@H]1CCC[C@H]1N1CCCC1 (single isomer, unassigned) [Example 141, (+)-2-Ethyl-N-(2-pyrrolidin-1-yl-cyclopentyl)-4,6-bis-trifluoromethyl-benzamide] | 7.36 | – |
| O=C(NC1CCCC1N1CCCC1)c1c(C2CC2)cc(C(F)(F)F)cc1C(F)(F)F (single isomer, unassigned; (+)) [Example 139, (+)-2-Cyclopropyl-N-((1R,2S or 1S,2R)-2-pyrrolidin-1-yl-cyclopentyl)-4,6-bis-trifluoromethyl-benzamide] | 7.49 | – |
